Results from patent US8293716B2, “Method of treating cancer by modulation of mortalin” (Ramot At Tel Aviv University Ltd., priority 2005, dated 2012).
Where a SMILES comes first, the peptide text is derived from it. The star is where a group is joined. Cbz = O=C(OCc1ccccc1)*; CH2F = FC*

How the values were obtained:
solid tumors = conditions: cited from earlier work
K562 cells [1] = assay: Complement-induced protection assay; assay type: cell-based, human; conditions: cells pre-treated with inhibitor and sublytic complement, then lytic dose of antibody and complement; FIGS. 6f-g
Experimental: (§1) Cell lysis and induced protection assays: Cytotoxicity assays were performed as previously described (Reiter, Y. and Fishelson, Z. 1992. Mol Immunol 29:771). Briefly, cells were incubated with diluted anti-K562 antiserum for 30 minutes at 4 degrees centigrade and then with complement (NHS, C7- or C8-deficient serum or HI-NHS, 50 percent) for 60 minutes at 37 degrees centigrade. Cell lysis was determined via Trypan blue staining. For the complement-induced protection assays, the cells were first treated with sublytic doses of antibody and NHS, washed and then incubated with lytic doses of antibody and NHS (Reiter, Y. et al., 1992. Eur J Immunol 22:1207). Statistical significance was analyzed by using the two-sided unpaired student's t-test.

K562 cells [2] = assay: Release of metabolically-labeled proteins from complement-treated K562 cells; assay type: cell-based, human; conditions: pretreatment 30 minutes with 100 micrograms per milliliter PMB or 10 micromolar PD; radioactivity in supernatants; FIG. 6e
Experimental: (§2) Collection of extracellular protein: Cells were treated with antibodies for 30 minutes at 4 degrees centigrade and then with NHS or HI-NHS (50 percent) for 10 minutes at 37 degrees centigrade. Then, the cells were extensively washed into HBSS and incubated at 37 degrees centigrade. At different times, cells were removed by centrifugation at 250×g and supernatants were collected and kept frozen until analyzed. In some experiments, cells were first metabolically labeled for 2 hours at 37 degrees centigrade with an L-[^35S]methionine, L-[^35S]cysteine mix (Amersham Pharmacia, Uppsala, Sweden) at 200 microcuries per milliliter in RPMI (lacking methionine and cysteine) and 20 millimolar HEPES-pH 7.0. Cytotoxicity assays and collection of extracellular proteins were performed as described above. Radioactivity in the supernatants was quantified in a beta-Scintillation Counter (Tri-Carb, Packard).

mortalin [3] = assay: Mortalin release into supernatants of K562 cells, SDS-PAGE and Western blotting; assay type: cell-based, human; conditions: for release of mortalin from complement-treated cells: 30 minutes pretreatment (PMB 100 micrograms per milliliter, PD98059 10 micromolar), then sublytic anti-K562 antibody and NHS, FIGS. 6a-d; for mortalin release in response to sublytic dose of pore-former: mellitin 70 micromolar, SLO 900 units per milliliter, 10 minutes 37 degrees, no complement, FIGS. 4c-d
Experimental: as §2
Protein analyses: Protein concentration was analyzed with the BCA Protein Assay Kit (Pierce, Rockford, Ill., USA). Samples of 20 micrograms of protein was subjected to SDS-PAGE under reducing conditions (50 millimolar DTT), in a 10 percent acrylamide gel, and stained with Coomassie Blue or silver. Selected protein species were excised from Coomassie Blue-stained gels and analyzed by mass spectrometry (MALDI-MS) at the Maiman Institute for Proteome Research (Tel-Aviv University). Alternatively, the electrophoretically separated proteins were transferred onto a nitrocellulose membrane (Schleicher & Schuell, Dassel, Germany). The membrane was blocked with 5 percent skim milk (Tnuva, Rehovot, Israel) in Tris-buffered saline containing 0.05 percent Tween-20 (Sigma; TBST) for 1 hour at room temperature. The membrane was treated with rabbit anti-mortalin antibodies and then with peroxidase-conjugated goat anti-rabbit IgG. The labeled membrane was developed with an enhanced chemiluminescence reagent (Pierce, Rockford, Ill., USA) and exposed to a SuperRX film (Fuji, Tokyo, Japan).

mortalin [4] = assay: Mortalin expression level in K562 cells, Western blotting of cell lysates; assay type: cell-based, human; conditions: cathepsin L inhibitor 5, 10, 20 or 40 micromolar, 30 minutes 37 degrees; FIG. 8a
Experimental: (§3) Cells and cell lysates: The human erythroleukemic cell line K562 was cultured in RPMI-1640 medium supplemented with 10 percent (v/v) heat-inactivated fetal bovine serum (Gibco laboratories, Grand Island, NY, USA), 1 percent glutamine, 2 percent pyruvate and antibiotics mixture (Bio-Lab, Jerusalem, Israel), at 37 degrees centigrade in a 5 percent carbon dioxide atmosphere. To prepare cell lysates, 20 million cells were mixed with 1 milliliter lysis buffer composed of 100 millimolar Tris-pH 7.5, 10 millimolar EDTA, protease inhibitor cocktail (Sigma) and 0.7 percent Triton X-100. After 3 cycles of freezing and thawing, the cell lysate was subjected to centrifugation for 15 minutes at 14,000×g, and the supernatant was collected and diluted with 1 milliliter HBSS (Sigma, Rehovot, Israel).
Protein analyses: Protein concentration was analyzed with the BCA Protein Assay Kit (Pierce, Rockford, Ill., USA). Samples of 20 micrograms of protein was subjected to SDS-PAGE under reducing conditions (50 millimolar DTT), in a 10 percent acrylamide gel, and stained with Coomassie Blue or silver. Selected protein species were excised from Coomassie Blue-stained gels and analyzed by mass spectrometry (MALDI-MS) at the Maiman Institute for Proteome Research (Tel-Aviv University). […]

K562 cells [5] = assay: Complement-mediated cell lysis (cytotoxicity) assay, Trypan blue staining; assay type: cell-based, human; conditions: 10 micromolar cathepsin L inhibitor 30 minutes, anti-K562 1:40 or 1:50, NHS 60 minutes; versus DMSO; FIG. 8b
Experimental: as §3
as §1, with “For the complement-induced protection assays, the cells were first treated with sublytic doses of antibody and NHS, washed and then incubated with lytic doses of antibody and NHS (Reiter, Y. et al., 1992. Eur J Immunol 22:1207).” left out

Compound | acquired resistance to lytic complement after sublytic complement (K562 cells [1]) | complement-induced release of metabolically-labeled proteins (K562 cells [2]) | release of mortalin from complement-treated cells (mortalin [3]) | mortalin release in response to sublytic dose of pore-former (mortalin [3]) | further results
CCn1c(=O)/c(=C2\Sc3ccccc3N2C)s/c1=C\c1cccc[n+]1CC.[Cl-] [MKT-077] |  |  |  |  | kidney toxicity in human patients (solid tumors; Propper et al. 1999): irreversible kidney damage; effectiveness when used to treat cancer patients (solid tumors; cancer patients): ineffective or suboptimally effective
COc1cccc(-c2cc(=O)c3ccccc3o2)c1N [PD98059] | did not acquire the resistance to lytic complement | blocked | significantly reduced |  | 
O=C(N[C@@H](Cc1ccccc1)C(=O)N[C@@H](Cc1ccccc1)C(=O)CF)OCc1ccccc1 [cathepsin L inhibitor, Z-Phe-Phe-CH2F] (Cbz-Phe-Phe-CH2F) |  |  |  |  | mortalin expression in K562 cells (mortalin [4]): elevation of mortalin expression; resistance of treated cells to lysis by antibody and complement (K562 cells [5]): enhanced resistance
Streptolysin O [SLO] |  |  |  | not released | 
mellitin |  |  |  | not released | 
polymyxin B [PMB] | did not acquire the resistance to lytic complement | blocked | significantly reduced |  | 
